Key:
[1] = tested on: Sprague-Dawley rats, retinal ischemia/reperfusion (I/R) injury; experiment: Histological (H&E) evaluation of I/R-induced retinal injury (14 days); format: in vivo; conditions: rat, 14 days after I/R injury
Procedure: Experimental procedures were approved by the Mackay Memorial Hospital Review Board (Taiwan, R.O.C.). All surgeries were performed under aseptic conditions. Adult 10-week-old male Sprague-Dawley rats (initial body weight=312±11 g) were anesthetized by an intraperitoneal injection of xylazine (10 mg/kg). Peptide was dissolved in 0.85% normal saline to 1 mM and delivered by the subconjunctival injection of 100 μL peptide through a 31-Gneedle with a micro-syringe before the induction of I/R. Normal saline was as a vehicle control. Rat I/R was performed after peptide or vehicle injection for 4 h. Pupils were dilated with 0.5% tropicamide and 0.5% phenylephrine. Body temperature was maintained at 37° C. using a heating blanket After dilation of the pupil, the anterior chamber of the right eye was cannulated with a 27-gauge needle connected to a physiological saline reservoir. The intraocular pressure (IOP) was raised to 110 mmHg by keeping the reservoir at 150 cm above the eye, and retinal ischemia was confirmed by observing whitening of the iris and the loss of the red reflex of the retina. After 90 min of ischemia, the cannulating needle was withdrawn and the IOP was returned to normal pressure, resulting in recovery of the blood supply from the retinal artery and reperfusion injury induced. The reperfusion was evident by the return of the red reflex. Corneal analgesia was achieved using 1 or 2 drops of 0.4% oxybuprocaine hydrochloride, and Ofloxacin ophthalmic gel (0.3%) was applied topically to the eye before and after the procedure. Only the right eye was used in all experiments. A sham procedure was performed at left eye served as an intra-animal control.
Rats (n=6 in each group) were euthanized using an overdose of pentobarbital (intravenously 100 mg/kg of bodyweight) at 14 days after the I/R injury, the eyeballs were marked at the 12 o'clock position of the cornea with silk suture, and then enucleated and fixed in 4% paraformaldehyde(PFA) at 4° C. for 24 h. After fixation, the anterior segment was removed, and the posterior eyeball containing the optic disc was dehydrated in a graded ethanol series and embedded in paraffin. […] To quantify the degree of I/R damage in the retina, we measured the overall central retinal thicknesses (OT, between the GCL to ONL), the inner nuclear layer (INL), and the outer nuclear layer (ONL). The number of cells in the ganglion cell layer (GCL) was calculated using the linear cell density (cells per 200 μm). Three sections per eye were averaged and the mean of six eyes was recorded as the representative value for each group.

[2] = tested on: ARPE-19 cells; experiment: 4-HNE induced apoptosis of ARPE-19 cells (TUNEL staining); format: cell-based, human; conditions: 20 μM peptide pretreatment, 25 μM 4-HNE 24 h
Procedure: FIG. 6. The protective effect of the 6-mer dS on ARPE-19 cells against 4-HNE induced apoptosis. Cells were deprived of serum for 24 h and then pretreated with 20 μM 6-mer dS or solvent prior to exposed with 25 μM 4-HNE for additional 24 h. Apoptosis was determined by TUNEL staining (green dots) and counter-stained with Hoechst 33258 (blue dots). (A) Representative graphs from three independent experiments are shown. (B) The percentage of cell death was quantified by dividing the number of TUNEL-positive cells to a population of 2000 counted cells per condition. TUNEL, terminal deoxynucleotidyl transferase-mediated dUTP nick end-labeling. ^aP<0.00003 versus solvent-treated cells. ^bP<0.0006 versus solvent/4-HNE-treated cells.
Reference is made to FIG. 6, which depicts the protective effect of 6-mer dS or 6-mer dE on 4-hydroxy-2-nonenal (4-HNE) induced apoptosis of ARPE-19 cells. 4-hydroxy-2-nonenal (4-HNE) is a product of lipid oxidation, and is also considered as one of the most formidable reactive aldehydes capable of forming adduct with various cellular targets, particularly proteins involve in redox signaling.

With “NH2-(D-Ser)-Leu-Gly-Ala-Glu-Gln-COOH (SLGAEQ; HELM PEPTIDE1{[dS].L.G.A.E.Q}$$$$V2.0; SMILES CC(C)C[C@H](NC(=O)[C@H](N)CO)C(=O)NCC(=O)N[C@@H](C)C(=O)N[C@@H](CCC(=O)O)C(=O)N[C@@H](CCC(N)=O)C(=O)O) [6-mer dS]” the “INL Thickness” value ([1]; H&E, Control 70.7 ± 2.4, Vehicle + I/R 51.6 ± 0.8) was 71.3 ± 7.5 μm, the “ONL Thickness” value ([1]; H&E, Control 139.8 ± 4.2, Vehicle + I/R 125.8 ± 4.5) was 133.4 ± 7.7 μm and the “Total Thickness (From GCL to INL)” value ([1]; H&E, Control 326.2 ± 9.4, Vehicle + I/R 260.8 ± 7.1) was 308.9 ± 11.2 μm. For the same substance, the “overall retinal thickness, in words” value ([1]; single subconjunctival injection) was “improved the overall retinal thickness to a level similar to that in the shame control group” and the “4-HNE induced apoptosis (TUNEL), in words” value [2] was “could suppress 4-HNE induced apoptosis”.
